Results from patent US20240415819A1, “MACROCYCLIC COMPOUNDS AS PROTEASOME SUBUNIT BETA TYPE-5 INHIBITORS” (Lead Discovery Center GmbH, priority 2021, published 2024).

Tests used:
B cell = B cell diff. (Table 4, method not given); assay type: cell-based; conditions: B-cell
[1] = tested on: B-cells isolated from PBMC's; test: Chymotrypsin-like ProteasomeGlo assay in B-cells isolated from PBMCs; assay type: cell-based, human; conditions: Homo sapiens; B-cells isolated from PBMC's; read-out: Pglo B-Cell
Method in brief: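 Human B-cells were negatively isolated from buffy-coat PBMCs by density gradient, RBC lysis and Miltenyi magnetic separation. Cells were plated and compounds added by acoustic transfer after 1:100 dilution, with DMSO controls and medium-only wells. Chymotrypsin-like proteasome activity was read by luminescent ProteasomeGlo to derive IC50.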

Karpas cells = test: Glo assay of Karpas cells (Table 3; ProteasomeGlo plating scheme); assay type: cell-based; conditions: read-out: Pglo Karpas
Method in brief: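 Luminescent read-out of cellular chymotrypsin-like proteasome activity: cells exposed to compound 105 min at 37° C., 5% CO2, then given Suc-LLVY-Glo reagent, shaken 2-5 min and kept dark 10-15 min before reading. Values are IC50 [nM].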

PBMC = PBMC IL 17 stim. (Table 4, method not given); assay type: cell-based

SMILES | IC50 (B cell) [nM] | IC50 (Karpas cells) [nM] | IC50 [1] [nM] | IC50 (PBMC) [nM]
Cc1ccc2cc1CNC(=O)[C@H](CCc1ccccc1)NC(=O)[C@@H](Nc1nc3ccccc3[nH]1)CC(=O)N1CCCC(CCO2)C1 (stereo partly drawn) [Compound 45, (9S,12S)-12-((1H-benzo[d]imidazol-2-yl)amino)-5^4-methyl-9-phenethyl-4-oxa-7,10-diaza-1(3,1)-piperidina-5(1,3)-benzenacyclotetradecaphane-8,11,14-trione] | < 100 | – | 100 to 500 | –
Cc1ccc2cc1CNC(=O)[C@H](CCc1ccccc1)NC(=O)CCCCC(=O)N1CCCC(CCO2)C1 (stereo partly drawn) [Compound 16, (9S)-5^4-methyl-9-phenethyl-4-oxa-7,10-diaza-1(3,1)-piperidina-5(1,3)-benzenacyclohexadecaphane-8,11,16-trione] | < 100 | – | < 100 | < 100
Cc1ccc2cc1CNC(=O)[C@H](CCc1ccccc1)NC(=O)CCC(=O)N1CCCC(CCO2)C1 (stereo partly drawn) [Compound 13, (9S)-5^4-methyl-9-phenethyl-4-oxa-7,10-diaza-1(3,1)-piperidina-5(1,3)-benzenacyclotetradecaphane-8,11,14-trione] | 100 to 500 | – | < 100 | –
Cc1ccc2cc1CNC(=O)[C@H](CCc1ccccc1)NC(=O)[C@@H](NC(=O)[C@@H](C)c1ccccc1)CC(=O)N1CCCC(CCO2)C1 (stereo partly drawn) [Compound 81, (2S)-N-((9S,12S)-5^4-methyl-8,11,14-trioxo-9-phenethyl-4-oxa-7,10-diaza-1(3,1)-piperidina-5(1,3)-benzenacyclotetradecaphane-12-yl)-2-phenylpropanamide] | – | < 100 | < 100 | –
Cc1ccc2cc1CNC(=O)[C@H](C)NC(=O)CCC(=O)N1CCCC(CCO2)C1 (stereo partly drawn) [Compound 78, (9S)-5^4,9-dimethyl-4-oxa-7,10-diaza-1(3,1)-piperidina-5(1,3)-benzenacyclotetradecaphane-8,11,14-trione] | – | 100 to 500 | 100 to 500 | –
Cc1ccc2cc1CNC(=O)[C@H](CCc1ccccc1)NC(=O)[C@@H](NC(=O)c1n[nH]c3ccccc13)CC(=O)N1CCCC(CCO2)C1 (stereo partly drawn) [Compound 60, N-((9S,12S)-5^4-methyl-8,11,14-trioxo-9-phenethyl-4-oxa-7,10-diaza-1(3,1)-piperidina-5(1,3)-benzenacyclotetradecaphane-12-yl)-1H-indazole-3-carboxamide] | – | 100 to 500 | 100 to 500 | –

Further lines, with some results ahead:

IC50 (B cell) [nM] | IC50 (Karpas cells) [nM] | SMILES | IC50 [1] [nM] | IC50 (PBMC) [nM]
– | < 100 | COc1ccc(CC(=O)N[C@H]2CC(=O)N3CCCC(CCOc4ccc(C)c(c4)CNC(=O)[C@H](CCc4ccccc4)NC2=O)C3)cc1OC (stereo partly drawn) [Compound 63, 2-(3,4-dimethoxyphenyl)-N-((9S,12S)-5^4-methyl-8,11,14-trioxo-9-phenethyl-4-oxa-7,10-diaza-1(3,1)-piperidina-5(1,3)-benzenacyclotetradecaphane-12-yl)acetamide] | < 100 | < 100
< 100 | – | Cc1ccc2cc1CNC(=O)[C@H](CCc1ccccc1)NC(=O)[C@@H](Nc1ccccn1)CC(=O)N1CCCC(CCO2)C1 (stereo partly drawn) [Compound 36, (9S,12S)-5^4-methyl-9-phenethyl-12-(pyridin-2-ylamino)-4-oxa-7,10-diaza-1(3,1)-piperidina-5(1,3)-benzenacyclotetradecaphane-8,11,14-trione] | 100 to 500 | –
< 100 | – | Cc1ccc2cc1CNC(=O)[C@H](CCc1ccccc1)NC(=O)[C@@H](N1C(=O)CCC1=O)CC(=O)N1CCCC(CCO2)C1 (stereo partly drawn) [Compound 43, (9S,12S)-12-(2,5-dioxopyrrolidin-1-yl)-5^4-methyl-9-phenethyl-4-oxa-7,10-diaza-1(3,1)-piperidina-5(1,3)-benzenacyclotetradecaphane-8,11,14-trione] | < 100 | –
< 100 | – | Cc1ccc2cc1CNC(=O)[C@H](CCc1ccccc1)NC(=O)[C@@H](NS(C)(=O)=O)CC(=O)N1CCCC(CCO2)C1 (stereo partly drawn) [Compound 37, N-((9S,12S)-5^4-methyl-8,11,14-trioxo-9-phenethyl-4-oxa-7,10-diaza-1(3,1)-piperidina-5(1,3)-benzenacyclotetradecaphane-12-yl)methanesulfonamide] | < 100 | –
< 100 | – | Cc1ccc2cc1CNC(=O)[C@H](CCc1ccccc1)NC(=O)[C@@H](NC(=O)c1ccncc1)CC(=O)N1CCCC(CCO2)C1 (stereo partly drawn) [Compound 42, N-((9S,12S)-5^4-methyl-8,11,14-trioxo-9-phenethyl-4-oxa-7,10-diaza-1(3,1)-piperidina-5(1,3)-benzenacyclotetradecaphane-12-yl)isonicotinamide] | < 100 | –
– | < 100 | COc1ccc(CC(=O)N[C@H]2CC(=O)N3CCCC(CCOc4ccc(C)c(c4)CNC(=O)[C@H](CCc4ccccc4)NC2=O)C3)cc1 (stereo partly drawn) [Compound 83, 2-(4-methoxyphenyl)-N-((9S,12S)-5^4-methyl-8,11,14-trioxo-9-phenethyl-4-oxa-7,10-diaza-1(3,1)-piperidina-5(1,3)-benzenacyclotetradecaphane-12-yl)acetamide] | < 100 | –
– | < 100 | Cc1ccc2cc1CNC(=O)[C@H](CCc1ccccc1)NC(=O)[C@@H](NC(=O)CN1CCOCC1)CC(=O)N1CCCC(CCO2)C1 (stereo partly drawn) [Compound 88, N-((9S,12S)-5^4-methyl-8,11,14-trioxo-9-phenethyl-4-oxa-7,10-diaza-1(3,1)-piperidina-5(1,3)-benzenacyclotetradecaphane-12-yl)-2-morpholinoacetamide] | < 100 | –
– | < 100 | Cc1ccc2cc1CNC(=O)[C@H](CCc1ccccc1)NC(=O)[C@@H](N)CC(=O)N1CCCC(CCO2)C1 (stereo partly drawn) [Compound 8, (9S,12S)-12-amino-5^4-methyl-9-phenethyl-4-oxa-7,10-diaza-1(3,1)-piperidina-5(1,3)-benzenacyclotetradecaphane-8,11,14-trione] | < 100 | –
